According to patent US20240384250A1, “FIBROBLAST GROWTH FACTOR 23 MODULATING COMPOUNDS” (THE UAB RESEARCH FOUNDATION, priority 2021, published 2024):
Entries after “also recorded” stand apart in the source; their conditions may differ.

Key:
[1] = test system: FGF19 binding to FGFR isoforms 1c, 2c, 3c, 4; test: Pull-down and plate binding of FGF19 to FGFR isoforms with sKL or heparin; parameters: species or system human
Method: (§1) To study the interaction between Fc-tagged FGFR isoforms (Fc-FGFR), FGF isoforms, and sKL, immunoprecipitation studies were conducted. Protein A beads (6501, BioVision) and protein G beads (6511, BioVision) were used at 25 μl of a 50% stock slurry per sample in a total bead volume of 50 μl. Beads were washed 5× in activity buffer (50 mM Tris [pH 7.4], 200 mM NaCl, 0.01% Tween 20). Bead spin-down assays were all performed for 2 minutes at 5000 g. Beads were resuspended in 1 ml of activity buffer in a 1.5-ml snap cap tube. One microgram of Fc-FGFR1 to 4 was incubated with the beads for 1 hour on a bead rotator. Control samples were incubated with 2 μg of anti-FGF antibody instead of Fc-FGFR. […] Samples were analyzed using SDS-PAGE and Western blotting.
(§2) Proteins were coated on 96-well plates (MaxiSorp; 439454, Thermo Fisher Scientific), and proteins were added to wells in 100 μl of enzyme-linked immunosorbent assay (ELISA) coating buffer (E107, Bethyl Laboratories) with a lid placed overtop and incubated at 4° C. overnight. […] Reactions were stopped with ELISA stop solution (E115, Bethyl Laboratories) and analyzed using the Synergy HI plate reader (BioTek) at 450 nm wavelength. […] As a control to remove background absorbance values, wells were coated with an equal amount of BSA to match the amount of protein coated in experimental wells and treated the same as experimental wells. […]

FGF23 binding to FGFR3c = target: T1, FGF23 binding to FGFR3c (Homo sapiens, UniProt P22607+Q9GZV9); test: Pull-down of FGF23 with Fc-FGFR on protein A/G beads with sKL, heparin or PBS; settings: with heparin, or alone
T1 construct: Fc-coupled FGFR ectodomains were immobilized on protein A/G beads; purchased R&D Systems 2604FG025/CF or 2629FG025/CF; 766FR050
T1 sequence (Q9GZV9 25-251): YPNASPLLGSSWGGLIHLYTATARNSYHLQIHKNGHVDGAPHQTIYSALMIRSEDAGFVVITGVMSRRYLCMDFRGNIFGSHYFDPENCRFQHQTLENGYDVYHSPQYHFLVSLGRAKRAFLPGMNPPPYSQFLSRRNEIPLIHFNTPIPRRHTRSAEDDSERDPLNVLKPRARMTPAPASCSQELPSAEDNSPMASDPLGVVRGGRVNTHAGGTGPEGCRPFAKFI
T1 sequence (P22607 23-375 limits assumed): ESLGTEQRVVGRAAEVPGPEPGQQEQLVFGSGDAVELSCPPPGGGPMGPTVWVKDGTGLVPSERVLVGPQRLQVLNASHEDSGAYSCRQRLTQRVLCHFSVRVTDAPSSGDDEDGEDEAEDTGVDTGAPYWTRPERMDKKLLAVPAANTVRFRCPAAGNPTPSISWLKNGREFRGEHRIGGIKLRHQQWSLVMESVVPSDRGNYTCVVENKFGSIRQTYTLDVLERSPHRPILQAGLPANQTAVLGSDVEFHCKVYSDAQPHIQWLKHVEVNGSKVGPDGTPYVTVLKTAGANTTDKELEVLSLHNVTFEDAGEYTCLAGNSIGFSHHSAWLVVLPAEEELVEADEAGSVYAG
Method: (§3) To study the interaction between Fc-tagged FGFR isoforms (Fc-FGFR), FGF isoforms, and sKL, immunoprecipitation studies were conducted. Protein A beads (6501, BioVision) and protein G beads (6511, BioVision) were used at 25 μl of a 50% stock slurry per sample in a total bead volume of 50 μl. Beads were washed 5× in activity buffer (50 mM Tris [pH 7.4], 200 mM NaCl, 0.01% Tween 20). Bead spin-down assays were all performed for 2 minutes at 5000 g. Beads were resuspended in 1 ml of activity buffer in a 1.5-ml snap cap tube. One microgram of Fc-FGFR1 to 4 was incubated with the beads for 1 hour on a bead rotator. Control samples were incubated with 2 μg of anti-FGF antibody instead of Fc-FGFR. Beads were then pelleted at 5000 g for 2 minutes and washed 5× with activity buffer. Beads were resuspended and incubated with different combinations of 500 ng of FGF, 1 μg of sKL, 1.6 United States Pharmacopeia (USP) units of heparin, or phosphate-buffered saline (PBS). Beads were incubated for 1 hour on a tube rotator, and beads were pelleted and washed as before. One hundred microliters of 1× Laemmli sample buffer (1610737, Bio-Rad) with 1.42 M 2-mercaptoethanol was added, and samples were boiled for 5 minutes. Samples were analyzed using SDS-PAGE and Western blotting.
(§4) The sample (20 μl) was loaded onto Mini-PROTEAN TGX Precast Gel 4-20% for experiments with <9 samples (4568094, Bio-Rad) or Criterion TGX Precast Gel 4-20% (5678094, Bio-Rad) for experiments with >9 samples. Gels were run in 1× Tris/Glycine/SDS buffer (1610732, Bio-Rad) at 150 V and stopped when the sample dye reached the end of the gel. Gels were removed and electrotransferred via a semi-dry cassette (1703940, Bio-Rad) in I× Tris/Glycine buffer (1610734, Bio-Rad) with 20% methanol. Gels were transferred onto polyvinylidene diflouride membranes (IPVH00010, Millipore) at 20 V for 1 hour. Membranes were then blocked in 5% dried milk with 0.5% Tween 20 diluted in Tris-buffered saline (TBST; pH 7.5) for 1 hour and probed with antibodies against specific antigens at 1:1000 in TBST with 5% dried milk. Blots were washed 3× for 5 minutes in TBST and probed with HRP-coupled secondary antibodies against specific species at 1:10,000 in TBST with 5% dried milk. Membranes were imaged on the SRX-101A X-ray film developer (Konica Minolta).

FGF23 binding to FGFR1c = target: T2, FGF23 binding to FGFR1c (Homo sapiens, UniProt P11362+Q9GZV9); test: as above; settings: with heparin, or alone
T2 construct: Fc-coupled FGFR ectodomains were immobilized on protein A/G beads; purchased R&D Systems 2604FG025/CF or 2629FG025/CF; 658FR050
T2 sequence (Q9GZV9 25-251): as the sequence (Q9GZV9 25-251) above
T2 sequence (P11362 22-376 limits assumed): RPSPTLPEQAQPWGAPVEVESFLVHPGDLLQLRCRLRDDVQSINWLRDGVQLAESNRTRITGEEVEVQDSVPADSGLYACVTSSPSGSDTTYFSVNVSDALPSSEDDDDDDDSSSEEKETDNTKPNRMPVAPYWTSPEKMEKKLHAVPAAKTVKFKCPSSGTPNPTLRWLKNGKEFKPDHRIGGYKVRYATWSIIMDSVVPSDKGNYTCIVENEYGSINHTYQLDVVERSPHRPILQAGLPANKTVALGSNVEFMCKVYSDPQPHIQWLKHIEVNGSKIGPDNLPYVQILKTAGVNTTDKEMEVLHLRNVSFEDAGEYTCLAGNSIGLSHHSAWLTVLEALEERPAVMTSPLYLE
Method: as §3, §4

FGF23 binding to FGFR2c = target: T3, FGF23 binding to FGFR2c (Homo sapiens, UniProt P21802); test: as above; settings: with heparin, or alone
T3 construct: Fc-coupled FGFR ectodomains were immobilized on protein A/G beads; purchased R&D Systems 2604FG025/CF or 2629FG025/CF; 712FR050
T3 sequence (P21802 22-377 limits assumed): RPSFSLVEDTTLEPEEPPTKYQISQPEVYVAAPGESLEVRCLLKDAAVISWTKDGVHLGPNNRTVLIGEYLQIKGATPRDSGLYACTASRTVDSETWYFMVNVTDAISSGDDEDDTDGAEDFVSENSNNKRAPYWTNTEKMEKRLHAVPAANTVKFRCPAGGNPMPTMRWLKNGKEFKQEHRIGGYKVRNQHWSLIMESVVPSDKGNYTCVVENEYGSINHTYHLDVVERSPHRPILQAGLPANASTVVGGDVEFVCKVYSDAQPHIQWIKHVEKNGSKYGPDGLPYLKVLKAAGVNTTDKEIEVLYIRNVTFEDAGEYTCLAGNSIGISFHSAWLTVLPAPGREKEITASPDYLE
Method: as §3, §4

FGF23 binding to FGFR4 = target: T4, FGF23 binding to FGFR4 (Homo sapiens, UniProt P22455+Q9GZV9); test: as above; settings: with heparin, or alone
T4 construct: Fc-coupled FGFR ectodomains were immobilized on protein A/G beads; purchased R&D Systems 2604FG025/CF or 2629FG025/CF; 685FR050
T4 sequence (Q9GZV9 25-251): as the sequence (Q9GZV9 25-251) above
T4 sequence (P22455 22-369 limits assumed): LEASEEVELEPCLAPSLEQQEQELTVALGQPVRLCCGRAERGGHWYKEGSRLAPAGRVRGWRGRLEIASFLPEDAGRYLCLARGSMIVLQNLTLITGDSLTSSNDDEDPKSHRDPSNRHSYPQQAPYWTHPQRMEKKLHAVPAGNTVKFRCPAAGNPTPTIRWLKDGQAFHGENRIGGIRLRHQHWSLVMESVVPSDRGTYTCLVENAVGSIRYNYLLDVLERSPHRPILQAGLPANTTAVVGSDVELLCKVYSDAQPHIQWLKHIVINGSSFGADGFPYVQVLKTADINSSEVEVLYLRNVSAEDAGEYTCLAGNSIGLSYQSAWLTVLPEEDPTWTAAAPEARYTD
Method: as §3, §4

[2] = test system: FGF21 binding to FGFR isoforms 1c, 2c, 3c, 4; test: Pull-down and plate binding of FGF21 to FGFR isoforms with sKL or heparin; parameters: species or system human
Method: as §1, §2

Sequence of FGF19 binding to FGFR isoforms 1c, 2c, 3c, 4 (O95750 25-216): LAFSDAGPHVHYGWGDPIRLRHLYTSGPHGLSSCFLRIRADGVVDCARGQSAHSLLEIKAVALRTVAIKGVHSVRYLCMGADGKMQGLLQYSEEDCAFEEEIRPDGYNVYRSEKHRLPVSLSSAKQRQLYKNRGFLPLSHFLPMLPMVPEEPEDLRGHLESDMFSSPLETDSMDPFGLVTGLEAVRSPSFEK

heparin [reference compound]
binding of FGF19 to any of the FGFR isoforms [1]: does not mediate binding | FGF23 co-precipitation with Fc-FGFR3c (FGF23 binding to FGFR3c): weaker FGF23 binding | FGF23 co-precipitation with Fc-FGFR1c (FGF23 binding to FGFR1c): weaker FGF23 binding | FGF23 co-precipitation with Fc-FGFR2c (FGF23 binding to FGFR2c): weaker FGF23 binding | FGF23 co-precipitation with Fc-FGFR4 (FGF23 binding to FGFR4): efficiently coprecipitates FGF23; also recorded: increased binding of FGF23 to FGFR4 | binding of FGF21 to any of the FGFR isoforms [2]: does not mediate binding
